According to patent US20260285816A1, “Piperazinyl-Modified Quinazolinyl-Aryl Urea Derivative, And Preparation Method And Use Thereof” (Guangxi Normal University, priority 2025, published 2026):
“Also recorded” adds a separate entry of the source. Like-named read-outs stand apart in the source and are kept apart here.

Tests used:
[1] = system: HeLa cells; experiment: CCK-8 anti-proliferative assay, HeLa; type: cell-based, human; details: for IC50: Homo sapiens, HeLa, co-incubated 48 h, read-out: Anti-proliferative activity (IC50 ± standard deviation) HeLa
Method in brief: (§1)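 Anti-proliferative effect is measured by CCK-8 after compound exposure at nine final concentrations between 1 and 30 μM. Treatment starts once seeded cells (5,000/well) reach 70% confluency at 37° C., 5% CO2.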

[2] = system: MCF-7 cells; experiment: CCK-8 anti-proliferative assay, MCF-7; type: cell-based, human; details: for IC50: Homo sapiens, MCF7, co-incubated 48 h, read-out: Anti-proliferative activity (IC50 ± standard deviation) MCF-7
Method in brief: as §1

[3] = system: A549 cells; experiment: CCK-8 anti-proliferative assay, A549; type: cell-based, human; details: for IC50: Homo sapiens, A549, co-incubated 48 h, read-out: Anti-proliferative activity (IC50 ± standard deviation) A549
Method in brief: as §1

[4] = system: MG-63 cells; experiment: CCK-8 anti-proliferative assay, MG-63; type: cell-based, human; details: Homo sapiens, MG-63
Method in brief: (§2)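 Human tumour cells were seeded at 5,000 per well and grown to 70% confluence. They were then treated in triplicate with compound at 1–30 μM (final) for the designated time. Viability was read by CCK-8 absorbance at 450 nm after 1–4 h, and IC50 was derived from % inhibition versus control.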

[5] = system: immortalized ureteral epithelial cells (SV-HUC-1); experiment: CCK-8 anti-proliferative assay, normal cells SV-HUC-1; type: cell-based, human; details: Homo sapiens, SV-HUC1, normal cells, co-incubated 48 h, read-out: Anti-proliferative activity (IC50 ± standard deviation) SV-HUC-1
Method in brief: as §1

[6] = system: embryonic lung fibroblasts (WI-38); experiment: CCK-8 anti-proliferative assay, normal cells WI-38; type: cell-based, human; details: Homo sapiens, read-out: Anti-proliferative activity (IC50 ± standard deviation) WI-38
Method in brief: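 Growth inhibition was measured by CCK-8 in human cells seeded at 5,000 per well and treated at 70% confluency. Compound exposure spanned 1, 2, 4, 6, 8, 12, 16, 24 and 30 μM for designated durations at 37° C. Percent inhibition against vehicle control at OD 450 nm yielded median inhibitory concentrations.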

[7] = system: 5637 cells; experiment: CCK-8 anti-proliferative assay, 5637; type: cell-based, human; details: Homo sapiens
Method in brief: as §1

[8] = system: UM-UC-3 cells; experiment: CCK-8 anti-proliferative assay, UM-UC-3; type: cell-based, human; details: Homo sapiens, UMUC3, co-incubated 48 h, read-out: Anti-proliferative activity (IC50 ± standard deviation) UM-UC-3
Method in brief: as §1

[9] = system: BxPC-3 cells; experiment: CCK-8 anti-proliferative assay, BxPC-3; type: cell-based, human; details: for IC50: Homo sapiens, BXPC-3, co-incubated 48 h, read-out: Anti-proliferative activity (IC50 ± standard deviation) BxPC-3
Method in brief: as §2

[10] = system: 143B cells; experiment: CCK-8 anti-proliferative assay, 143B; type: cell-based, human; details: Homo sapiens, 143B
Method in brief: as §2

[11] = type: physicochemical
Method: 0.9% normal saline was added thereto to obtain a solution, which was sterilized under UV light for 30 min. Administration volume was 10 mL/kg per mouse. […]
A resulting mixture was sterilized under UV light for 30 min. Administration volume was 10 mL/kg per mouse.

[12] = system: SK-OV-3 cells; experiment: CCK-8 anti-proliferative assay, SK-OV-3; type: cell-based, human; details: Homo sapiens, SK-OV-3, co-incubated 48 h, read-out: Anti-proliferative activity (IC50 ± standard deviation) SK-OV-3
Method in brief: as §1

[13] = system: T24 cells; experiment: CCK-8 anti-proliferative assay, T24; type: cell-based, human; details: Homo sapiens, T-24, co-incubated 48 h, read-out: Anti-proliferative activity (IC50 ± standard deviation) T24
Method in brief: as §2

[14] = system: Hep G2 cells; experiment: CCK-8 anti-proliferative assay, Hep G2; type: cell-based, human; details: Homo sapiens, HepG2, co-incubated 48 h, read-out: Anti-proliferative activity (IC50 ± standard deviation) Hep G2
Method in brief: as §2

[15] = system: J82 cells; experiment: CCK-8 anti-proliferative assay, J82; type: cell-based, human; details: Homo sapiens, J82
Method in brief: as §1

[16] = system: PANC-1 cells; experiment: CCK-8 anti-proliferative assay, PANC-1; type: cell-based, human; details: for IC50: Homo sapiens, PANC-1, co-incubated 48 h, read-out: Anti-proliferative activity (IC50 ± standard deviation) PANC-1
Method in brief: as §2

[17] = read-out: IC50 values, osteosarcoma cells MG-63
[18] = read-out: IC50 values, osteosarcoma cells 143B

With `COc1cc2ncnc(NCc3cccc(NC(=O)Nc4ccc(C(C)(C)C)cc4)c3)c2cc1OCCCCCCN1CCN(CCN2CCOCC2)CC1` [Compound 8-1j, N-(3-(((7-methoxy-6-((6-(4-(2-morpholinoethyl)piperazin-1-yl)hexyl)oxy)quinazolin-4-yl)amino)methyl)phenyl)-N′-(4-tert-butylphenyl)urea] the IC50 ([1]; Table 8) was 4.33 ± 0.45 µM, the “Sensitivity of MCF-7, in words” value [2] was “sensitive” and the IC50 ([2]; Table 8) was 3.25 ± 0.35 µM. The IC50 ([3]; Table 8) was 4.39 ± 0.34 µM, the IC50 ([4]; Table 7, co-incubated 48 h, read-out: Anti-proliferative activity (IC50 ± standard deviation) MG-63) was 4.17 ± 0.38 µM and the IC50 [4, 17] was < 5 µM. It also gave an IC50 ([5]; Table 9) of 8.03 ± 0.41 µM, an IC50 ([6]; WI-38, Table 9, co-incubated 48 h) of 10.3 ± 0.36 µM and an IC50 ([7]; Table 6, co-incubated 48 h, read-out: Anti-proliferative activity (IC50 ± standard deviation) 5637) of 3.29 ± 0.27 µM. The IC50 ([7]; read-out: IC50 values against 5637 cells) was 3.29 ± 0.27 µM, the IC50 ([8]; Table 6) was 3.53 ± 0.39 µM and the “Sensitivity of BxPC-3 / anti-proliferative activity against BxPC-3, in words” value [9] was “sensitive; also recorded: less sensitive”. The IC50 ([9]; Table 7) was 6.53 ± 0.48 µM, the IC50 ([10]; Table 7, co-incubated 48 h, read-out: Anti-proliferative activity (IC50 ± standard deviation) 143B) was 3.43 ± 0.25 µM and the IC50 [10, 18] was < 5 µM. For the same compound, the “Solubility in co-solvents (PEG400+normal saline, PEG400+PBS, PEG400+5% dextrose injection)” value [11] was “superior solubility”, the “Solubility in the PEG400-0.9% normal saline mixture” value ([11]; PEG400:0.9% normal saline 3:1) was “desirable solubility” and the IC50 ([12]; Table 9) was 5.04 ± 0.32 µM. The IC50 ([13]; Table 6) was 4.57 ± 0.42 µM, the IC50 ([14]; Table 8) was 3.83 ± 0.36 µM and the IC50 ([15]; Table 6, co-incubated 48 h, read-out: Anti-proliferative activity (IC50 ± standard deviation) J82) was 2.98 ± 0.27 µM. It also gave an IC50 ([15]; read-out: IC50 values against J82 cells) of 2.98 ± 0.27 µM and an IC50 ([16]; Table 7) of 7.72 ± 0.66 µM.

For `CCc1cccc(CC)c1NC(=O)Nc1cccc(CNc2ncnc3cc(OC)c(OCCCCCCN4CCC(CN5CCN(c6ccccn6)CC5)CC4)cc23)c1` [Compound 8-2h, N-(3-(((7-methoxy-6-((6-(4-((4-(pyridin-2-yl)piperazin-1-yl)methyl)piperidin-1-yl)hexyl)oxy)quinazolin-4-yl)amino)methyl)phenyl)-N′-(2,6-diethylphenyl)urea], the “Sensitivity of HeLa, in words” value [1] was “sensitive”, the IC50 ([1]; Table 12) was 3.29 ± 0.18 µM and the IC50 ([2]; Table 12) was 5.38 ± 0.35 µM. For the same compound, the “Activity against A549 versus the 8-1 to 8-23 series, in words” value [3] was “significantly enhanced activity against A549”, the IC50 ([3]; Table 13) was 3.41 ± 0.26 µM and the IC50 ([4]; Table 11, co-incubated 48 h, read-out: Anti-proliferative activity (IC50 ± standard deviation) MG-63) was 3.97 ± 0.26 µM. For the same compound, the IC50 [4, 17] was < 5 µM, the IC50 ([5]; Table 13) was 9.53 ± 0.83 µM and the IC50 ([6]; WI-38, Table 13, co-incubated 48 h) was 9.58 ± 0.43 µM. The IC50 ([7]; Table 10, co-incubated 48 h, read-out: Anti-proliferative activity (IC50 ± standard deviation) 5637) was 4.18 ± 0.22 µM, the IC50 ([8]; Table 10) was 5.09 ± 0.35 µM and the “Sensitivity of BxPC-3 / anti-proliferative activity against BxPC-3, in words” value [9] was “significantly stronger anti-proliferative activity against BxPC-3 than positive control Sora; also recorded: heightened sensitivity; also recorded: very sensitive; also recorded: highly sensitive”. The IC50 ([9]; Table 11) was 3.66 ± 0.24 µM, the IC50 ([10]; Table 11, co-incubated 48 h, read-out: Anti-proliferative activity (IC50 ± standard deviation) 143B) was 4.91 ± 0.36 µM and the IC50 [10, 18] was < 5 µM. For the same compound, the “Solubility in co-solvents (PEG400+normal saline, PEG400+PBS, PEG400+5% dextrose injection)” value [11] was “superior solubility”, the IC50 ([12]; Table 12) was 6.12 ± 0.55 µM and the IC50 ([13]; Table 10) was 4.21 ± 0.36 µM. For the same compound, the IC50 ([14]; Table 12) was 4.66 ± 0.38 µM, the IC50 ([15]; Table 10, co-incubated 48 h, read-out: Anti-proliferative activity (IC50 ± standard deviation) J82) was 4.42 ± 0.29 µM and the “Sensitivity of PANC-1, in words” value [16] was “sensitive; also recorded: heightened sensitivity”. The IC50 ([16]; Table 11) was 4.88 ± 0.29 µM.
